Laboratory results reported in publication PMC7601585, “Aedes albopictus D7 Salivary Protein Prevents Host Hemostasis and Inflammation” (Biomolecules, 2020).

B1: AeD7L1: D7 long form salivary protein from Ae. aegypti (GenBank: AAA29347) (protein, UniProt P18153 18-321, looked up)
Long form salivary protein …: STGPFDPEEMLFTFTRCMEDNLEDGPNRLPMLAKWKEWINEPVDSPATQCFGKCVLVRTGLYDPVAQKFDASVIQEQFKAYPSLGEKSKVEAYANAVQQLPSTNNDCAAVFKAYDPVHKAHKDTSKNLFHGNKELTKGLYEKLGKDIRQKKQSYFEFCENKYYPAGSDKRQQLCKIRQYTVLDDALFKEHTDCVMKGIRYITKNNELDAEEVKRDFMQVNKDTKALEKVLNDCKSKEPSNAGEKSWHYYKCLVESSVKDDFKEAFDYREVRSQIYAFNLPKKQVYSKPAVQSQVMEIDGKQCPQ

Tests used:
[1] = test system: AeD7L1; parameters: method as in PMID 19234127; conditions: cited from earlier work
[2] = target: T1, AlboD7L1 (Aedes albopictus, UniProt Q5MIW7); assay: biochemical; format: binding; conditions: for ΔH (kcal/mol) ± SE / −TΔS: ITC, 30 °C, TBS pH 7.4, single-site model, N fixed = 1
T1 construct: made in house; host or cells: Escherichia coli BL21 (DE3) pLysS
Description: To identify the potential biological function of AlboD7L1, isothermal titration calorimetry (ITC) was used to determine its binding affinities to putative ligands that are known to affect inflammation and hemostasis (biogenic amines, leukotrienes, and thromboxane A2). Measurements were performed on a MicroCal VP-ITC (Malvern Panalytical, Westborough, MA, USA) at 30 °C and stir speed at 286 rpm. […] Protein and ligands were diluted in Tris-buffered saline (TBS-20 mM Tris-HCl, 150 mM NaCl, pH 7.4) and degassed under vacuum for 5 min using a MicroCal ThermoVac (Malvern Panalytical, Westborough, MA, USA). The AlboD7L1 concentrations were 2 μM, 3 μM, or 5 μM, and ligand concentrations were prepared at 10-fold the protein concentration (20 μM, 30 μM, or 50 μM), depending on protein/ligand combination for optimal ITC performance. For eicosanoid ligands, the solvent was first evaporated under a stream of nitrogen gas prior to dissolving in TBS, vortexed, and sonicated for 10 min (Branson 1510, Branson Ultrasonics, Danbury, CT, USA) to ensure dissolution. The protein sample volume in the cell was 1.4 mL, and ligand injections were delivered in 10 μL volume in a total of 31 injections. The data was analyzed using the MicroCal PEAQ-ITC analysis software v 1.21 (Malvern Panalytical, Westborough, MA, USA) by fitting to a single-site binding model to obtain the stoichiometry (N), the dissociation constant (KD), the enthalpy of binding (ΔH), and the entropy change (ΔS°) at a constant temperature (T).

[3] = test system: platelet rich plasma; assay: Ex vivo platelet aggregation (light transmission aggregometer); format: cell-based, human; conditions: lower U-46619 doses (Supplementary Figure S3A)
Description: Platelet rich plasma was obtained from normal healthy donors on the NCI IRB approved NIH protocol 99-CC-0168, “Collection and Distribution of Blood Components from Healthy Donors for In Vitro Research Use.” Blood donors provided written informed consent, and platelets were de-identified prior to distribution. Platelet aggregation was measured using a light transmission aggregometer (Chrono-Log Corporation, Havertown, PA, USA). Briefly, 300 μL of platelet rich plasma, diluted to approximately 2.5 × 10^5 platelets/μL in HEPES-Tyrode’s buffer (137 mM NaCl, […], 12 mM NaHCO3, 0.34 mM sodium phosphate monobasic, 1 mM MgCl2, 2.9 mM KCl, 5 mM HEPES, 5 mM glucose, 1% BSA, 0.03 mM EDTA, pH 7.4) were pre-stirred in the aggregometer for 1 min to monitor pre-aggregation effects. Recombinant AlboD7L1 or Tyrode’s buffer as negative control were added to the platelet rich plasma before adding the agonists. Aggregation agonists used in our studies included serotonin, epinephrine, collagen type I fibrils from equine tendons, U-46619, ADP or combination of agonists. Their concentrations are specified in the figure or figure captions. Technical duplicates were performed. For experiments shown in Figure 6 a Chrono-Log aggregometer model 500-CA was used while experiments shown in Supplementary Figure S3 were done in a Chrono-Log model 700.

T1 sequence (Q5MIW7 22-332 limits assumed): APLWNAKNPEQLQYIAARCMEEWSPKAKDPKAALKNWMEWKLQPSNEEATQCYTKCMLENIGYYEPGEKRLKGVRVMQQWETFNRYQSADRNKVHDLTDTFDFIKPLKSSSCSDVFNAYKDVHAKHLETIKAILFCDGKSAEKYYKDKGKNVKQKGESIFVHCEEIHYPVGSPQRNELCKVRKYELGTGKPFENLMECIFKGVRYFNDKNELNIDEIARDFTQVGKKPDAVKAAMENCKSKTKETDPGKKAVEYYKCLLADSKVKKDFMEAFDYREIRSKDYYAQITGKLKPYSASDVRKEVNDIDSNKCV

Row | Molecule | binding to AeD7L1 [1] | Kd [2] [nM] | ΔH (kcal/mol) ± SE [2] [kcal/mol] | −TΔS [2] [kcal/mol] | platelet aggregation initiated with lower doses of U-46619 [3]
1 | CCCCCC(O)C=CC1C2CC(CO2)C1CC=CCCCC(=O)O (centres unmarked) [U-46619] | does not bind | 946 ± 269 | -8.54 ± 0.785 | 0.189 | –
2 | CNC[C@H](O)c1ccc(O)c(O)c1 [Epinephrine, epinephrine] | – | 4110 ± 3330 | -6.83 ± 0.809 | -0.637 | –
3 | CCCCC/C=C\C[C@@H](O)/C=C/C=C/C=C\[C@@H](O)CCCC(=O)O [LTB4, leukotriene B4] | – | 342 ± 65 | -2.74 ± 0.085 | -6.23 | –
4 | NCCc1c[nH]cn1 [Histamine, histamine] | – | 278 ± 66.2 | -7.47 ± 0.378 | -1.63 | –
5 | CCCCC/C=C\C\C=C/C=C/C=C/[C@@H](SC[C@H](N)C(=O)NCC(=O)O)[C@@H](O)CCCC(=O)O [LTD4] | – | 332 ± 48.3 | -5.00 ± 0.139 | -3.98 | –
6 | NC[C@H](O)c1ccc(O)c(O)c1 [Norepinephrine, norepinephrine] | – | 3.67 ± 0.994 | -11.6 ± 0.186 | -0.116 | –
7 | CCCCC/C=C\C\C=C/C=C/C=C/[C@@H](SC[C@H](NC(=O)CC[C@H](N)C(=O)O)C(=O)NCC(=O)O)[C@@H](O)CCCC(=O)O [LTC4] | – | 67.7 ± 22.4 | -7.90 ± 0.350 | -2.05 | –
8 | NCCc1c[nH]c2ccc(O)cc12 [Serotonin, serotonin] | – | 4.51 ± 2.66 | -13.7 ± 0.445 | 2.13 | –
9 | NCCc1c[nH]c2ccccc12 [Tryptamine, tryptamine] | – | 570 ± 97.7 | -6.43 ± 0.223 | -2.23 | –
10 | NCCc1ccc(O)c(O)c1 [Dopamine, dopamine] | – | 11 ± 2.19 | -12.3 ± 0.197 | 1.23 | –
11 | CCCCC/C=C\C\C=C/C=C/C=C/[C@@H](SC[C@H](N)C(=O)O)[C@@H](O)CCCC(=O)O [LTE4, leukotriene E4] | – | 567 ± 115 | -3.98 ± 0.180 | -4.69 | –
12 | B1 | – | – | – | – | inhibits platelet aggregation
